These are literature values, as cited in patent publication US11028348B2, “Naturally-derived antimicrobial cleaning solutions” (ProNatural Brands LLC, priority 2014, dated 2021).

For this data set the following is noted: standard pKa.

`O=C(O)CC(O)(CC(=O)O)C(=O)O` [citric acid]: the pKa1 is 3.1, the pKa2 is listed as 4.8 and the pKa3 is given as 6.4.
